Like-named read-outs stand apart in the source and are kept apart here.
Columns and labels:
[1] = molecular target: EZH2 Mutant Y641N (Homo sapiens (Human), UniProt Q15910, Y641N); assay: EZH2 Mutant Y641N nucleosome assay; format: biochemical; conditions: PRC2 4-protein complex 6 nM, 1.5 μM SAM, HeLa oligonucleosomes
[2] = molecular target: WT EZH2 (Homo sapiens (Human), UniProt Q15910); assay: WT EZH2 nucleosome assay (10X SAM, high SAM conditions); format: biochemical; conditions: 15 uM SAM, Ki app from competitive inhibition fit
WT EZH2, sequence (Q15910 whole entry, looked up): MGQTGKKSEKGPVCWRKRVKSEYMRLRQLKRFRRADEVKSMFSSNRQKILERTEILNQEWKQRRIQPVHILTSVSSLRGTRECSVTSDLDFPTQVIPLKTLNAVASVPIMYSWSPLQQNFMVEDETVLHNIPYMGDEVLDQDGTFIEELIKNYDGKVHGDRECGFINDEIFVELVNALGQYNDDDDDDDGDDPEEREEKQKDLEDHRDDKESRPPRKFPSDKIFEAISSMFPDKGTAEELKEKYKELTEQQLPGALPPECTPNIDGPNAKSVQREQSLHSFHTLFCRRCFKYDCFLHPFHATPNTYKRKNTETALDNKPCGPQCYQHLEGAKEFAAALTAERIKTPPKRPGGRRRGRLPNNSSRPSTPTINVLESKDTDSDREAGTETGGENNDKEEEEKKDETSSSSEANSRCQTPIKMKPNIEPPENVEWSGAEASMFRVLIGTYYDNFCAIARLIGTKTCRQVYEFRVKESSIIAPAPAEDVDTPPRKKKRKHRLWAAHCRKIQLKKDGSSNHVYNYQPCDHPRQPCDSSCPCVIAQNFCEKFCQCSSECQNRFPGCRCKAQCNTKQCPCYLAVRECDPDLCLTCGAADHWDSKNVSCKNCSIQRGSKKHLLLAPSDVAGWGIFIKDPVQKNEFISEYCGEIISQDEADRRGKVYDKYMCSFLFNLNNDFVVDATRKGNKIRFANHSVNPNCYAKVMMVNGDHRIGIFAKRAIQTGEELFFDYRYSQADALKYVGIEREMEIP
WT EZH2, sequence (O75530 whole entry partner, looked up): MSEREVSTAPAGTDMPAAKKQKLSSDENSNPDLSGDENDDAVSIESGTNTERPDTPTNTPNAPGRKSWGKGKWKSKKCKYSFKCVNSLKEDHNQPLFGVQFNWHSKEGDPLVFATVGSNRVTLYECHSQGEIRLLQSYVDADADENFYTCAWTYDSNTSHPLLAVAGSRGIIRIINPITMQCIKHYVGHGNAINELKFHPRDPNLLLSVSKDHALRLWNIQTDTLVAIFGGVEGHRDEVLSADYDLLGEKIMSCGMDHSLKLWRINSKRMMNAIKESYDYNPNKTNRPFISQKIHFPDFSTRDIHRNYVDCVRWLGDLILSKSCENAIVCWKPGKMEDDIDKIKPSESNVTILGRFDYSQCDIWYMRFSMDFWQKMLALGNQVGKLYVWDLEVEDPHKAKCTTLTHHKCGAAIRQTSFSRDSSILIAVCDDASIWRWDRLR
WT EZH2, sequence (Q15022 whole entry partner, looked up): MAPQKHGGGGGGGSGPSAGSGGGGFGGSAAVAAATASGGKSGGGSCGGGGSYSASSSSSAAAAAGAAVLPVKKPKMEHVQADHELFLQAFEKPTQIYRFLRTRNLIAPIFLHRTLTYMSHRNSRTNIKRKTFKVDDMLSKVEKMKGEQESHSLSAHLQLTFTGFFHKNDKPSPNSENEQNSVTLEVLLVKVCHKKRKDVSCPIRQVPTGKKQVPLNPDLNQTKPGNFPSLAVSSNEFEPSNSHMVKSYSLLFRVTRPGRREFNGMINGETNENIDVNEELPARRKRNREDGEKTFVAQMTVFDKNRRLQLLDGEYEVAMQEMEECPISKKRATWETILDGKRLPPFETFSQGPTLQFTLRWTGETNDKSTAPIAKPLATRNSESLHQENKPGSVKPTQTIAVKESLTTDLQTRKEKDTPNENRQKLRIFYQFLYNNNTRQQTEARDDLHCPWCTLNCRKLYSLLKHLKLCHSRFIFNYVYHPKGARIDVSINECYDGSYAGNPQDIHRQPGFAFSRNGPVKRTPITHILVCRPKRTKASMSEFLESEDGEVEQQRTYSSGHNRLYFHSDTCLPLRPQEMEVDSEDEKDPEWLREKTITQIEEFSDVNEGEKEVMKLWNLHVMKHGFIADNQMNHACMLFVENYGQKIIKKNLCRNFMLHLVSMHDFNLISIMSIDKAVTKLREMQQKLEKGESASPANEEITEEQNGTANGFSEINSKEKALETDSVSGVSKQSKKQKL
WT EZH2, sequence (Q09028 whole entry partner, looked up): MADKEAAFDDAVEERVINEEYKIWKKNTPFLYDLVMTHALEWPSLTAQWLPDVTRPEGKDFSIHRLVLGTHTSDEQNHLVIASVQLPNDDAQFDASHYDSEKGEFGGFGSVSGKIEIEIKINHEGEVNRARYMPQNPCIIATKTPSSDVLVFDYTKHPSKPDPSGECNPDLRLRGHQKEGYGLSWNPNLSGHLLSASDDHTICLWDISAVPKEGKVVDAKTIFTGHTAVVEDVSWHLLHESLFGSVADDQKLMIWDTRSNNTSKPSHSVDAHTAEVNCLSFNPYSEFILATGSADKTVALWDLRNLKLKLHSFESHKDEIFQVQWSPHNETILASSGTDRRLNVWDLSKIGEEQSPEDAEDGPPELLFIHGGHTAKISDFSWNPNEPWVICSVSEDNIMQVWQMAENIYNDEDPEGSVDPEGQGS

[3] = read-out: EZH2 Mutant Y641N Nucleosome assay IC50
[4] = read-out: WT EZH2 Nucleosome assay (10X SAM) Ki
[5] = EZH2 Mutant Y641N Nucleosome assay IC50 (μM)
[6] = WT EZH2 Nucleosome assay (10X SAM) Ki (μM)

EZH2 Mutant Y641N, sequence (Q15910 whole entry Y641N, looked up): as the sequence (Q15910 whole entry, looked up) above, with Y641N counted along it
EZH2 Mutant Y641N, sequence (O75530 whole entry partner, looked up): as the sequence (O75530 whole entry partner, looked up) above
EZH2 Mutant Y641N, sequence (Q15022 whole entry partner, looked up): as the sequence (Q15022 whole entry partner, looked up) above
EZH2 Mutant Y641N, sequence (Q09028 whole entry partner, looked up): as the sequence (Q09028 whole entry partner, looked up) above

COC(c1cc(Br)c2c(c1Cl)C(=O)N(Cc1c(C)cc(C)[nH]c1=O)CC2)C1CN(C(=O)CO)C1 (single isomer, unassigned) [Example 138]
IC50 [1, 3]: 0.249 µM | Ki [2, 4]: 0.046 µM

COC(c1cc(Br)c2c(c1Cl)C(=O)N(Cc1c(C)cc(C)[nH]c1=O)CC2)C1CN(C(=O)CO)C1 (single isomer, unassigned) [Example 139]
IC50 [1, 3]: 0.0085 µM | Ki [2, 4]: 0.0005 µM

COC(c1cc(Cl)c2c(c1Cl)C(=O)N(Cc1c(C)cc(C)[nH]c1=O)CC2)[C@H](C)CO (single isomer, unassigned) [Example 140]
IC50 [1, 3]: 1.17 µM | Ki [2, 4]: 0.103 µM

COC(c1cc(Cl)c2c(c1Cl)C(=O)N(Cc1c(C)cc(C)[nH]c1=O)CC2)[C@H](C)CO (single isomer, unassigned) [Example 141]
IC50 [1, 3]: 0.016 µM | Ki [2, 4]: 0.002 µM

COC(c1cc(Cl)c2c(c1Cl)C(=O)N(Cc1c(C)cc(C)[nH]c1=O)CC2)[C@@H](C)CO (single isomer, unassigned) [Example 142]
IC50 [1, 3]: 0.109 µM | Ki [2, 4]: 0.008 µM

COC(c1cc(Cl)c2c(c1Cl)C(=O)N(Cc1c(C)cc(C)[nH]c1=O)CC2)[C@@H](C)CO (single isomer, unassigned) [Example 143]
IC50 [1, 3]: 1.77 µM | Ki [2, 4]: 0.276 µM

COc1cc(C)[nH]c(=O)c1CN1CCc2c(C)cc(C(OC)C3COC3)c(Cl)c2C1=O (single isomer, unassigned) [Example 144]
IC50 [1, 3]: 0.005 µM | Ki [2, 4]: 0.0002 µM

COc1cc(C)[nH]c(=O)c1CN1CCc2c(C)cc(C(OC)C3COC3)c(Cl)c2C1=O (single isomer, unassigned) [Example 145]
IC50 [1, 3]: 0.272 µM | Ki [2, 4]: 0.07 µM

COC(c1cc(Br)c2c(c1Cl)C(=O)N(Cc1c(C)cc(C)[nH]c1=O)CC2)C1CCN(C)CC1 (single isomer, unassigned) [Example 146]
IC50 [1, 3]: 0.0035 µM | Ki [2, 4]: 0.0001 µM

COC(c1cc(Br)c2c(c1Cl)C(=O)N(Cc1c(C)cc(C)[nH]c1=O)CC2)C1CCN(C)CC1 (single isomer, unassigned) [Example 147]
IC50 [1, 3]: 0.543 µM | Ki [2, 4]: 0.128 µM

COC(c1cc(Cl)c2c(c1Cl)C(=O)N(Cc1c(C)cc(C)[nH]c1=O)CC2)C1CCS(=O)(=O)C1 (single isomer, unassigned) [Example 148]
IC50 [1, 3]: 0.439 µM | Ki [2, 4]: 0.056 µM

COC(c1cc(Cl)c2c(c1Cl)C(=O)N(Cc1c(C)cc(C)[nH]c1=O)CC2)C1CCS(=O)(=O)C1 (single isomer, unassigned) [Example 149]
IC50 [1, 3]: 2.27 µM | Ki [2, 4]: 0.539 µM

COC(c1cc(Cl)c2c(c1Cl)C(=O)N(Cc1c(C)cc(C)[nH]c1=O)CC2)C1CCS(=O)(=O)C1 (single isomer, unassigned) [Example 150]
IC50 [1, 3]: 0.003 µM | Ki [2, 4]: 0.0001 µM

COC(c1cc(Cl)c2c(c1Cl)C(=O)N(Cc1c(C)cc(C)[nH]c1=O)CC2)C1CCS(=O)(=O)C1 (single isomer, unassigned) [Example 151]
IC50 [1, 3]: 0.009 µM | Ki [2, 4]: 0.0008 µM

COC(c1cc(C)c2c(c1Cl)C(=O)N(Cc1c(C)cc(C)[nH]c1=O)CC2)C1CCN(C2COC2)CC1 (single isomer, unassigned) [Example 154]
IC50 [1, 3]: 0.553 µM | Ki [2, 4]: 0.0446 µM

COC(c1cc(C)c2c(c1Cl)C(=O)N(Cc1c(C)cc(C)[nH]c1=O)CC2)C1CCN(C2COC2)CC1 (single isomer, unassigned) [Example 155]
IC50 [1, 3]: 0.027 µM | Ki [2, 4]: 0.0013 µM

COC(c1cc(Cl)c2c(c1Cl)C(=O)N(Cc1c(C)cc(C)[nH]c1=O)CC2)C1CCN(C2COC2)CC1 (single isomer, unassigned) [Example 156]
IC50 [1, 5]: 1.71 µM | Ki [2, 6]: 0.375 µM

CCOC(c1cc(Cl)c2c(c1Cl)C(=O)N(Cc1c(C)cc(C)[nH]c1=O)CC2)C1CS(=O)(=O)C1 (single isomer, unassigned) [Example 158]
IC50 [1, 5]: 5.13 µM | Ki [2, 6]: 0.578 µM

COC(c1cc(Cl)c2c(c1Cl)C(=O)N(Cc1c(C)cc(C)[nH]c1=O)CC2)C1CCOC1 (single isomer, unassigned) [Example 160]
IC50 [1, 5]: 0.086 µM | Ki [2, 6]: 0.021 µM

COC(c1cc(Cl)c2c(c1Cl)C(=O)N(Cc1c(C)cc(C)[nH]c1=O)CC2)C1CCOC1 (single isomer, unassigned) [Example 162]
IC50 [1, 5]: 2.97 µM | Ki [2, 6]: 0.148 µM

[2H]C([2H])([2H])OC(c1cc(Cl)c2c(c1Cl)C(=O)N(Cc1c(C)cc(C)[nH]c1=O)CC2)C1CCN(C(=O)CO)CC1 (single isomer, unassigned) [Example 164]
IC50 [1, 5]: 1.97 µM | Ki [2, 6]: 0.2 µM

COC(c1cc(Cl)c2c(c1Cl)C(=O)N(Cc1c(C)cc(C)[nH]c1=O)CC2)C1CCNCC1 (single isomer, unassigned) [Example 166]
IC50 [1, 3]: 0.002 µM | Ki [2, 4]: 0.0002 µM

COC(c1cc(Cl)c2c(c1Cl)C(=O)N(Cc1c(C)cc(C)[nH]c1=O)CC2)C1CCNCC1 (single isomer, unassigned) [Example 167]
IC50 [1, 3]: 0.85 µM | Ki [2, 4]: 0.062 µM

COC(c1cc(C)c2c(c1Cl)C(=O)N(Cc1c(C)cc(C)[nH]c1=O)CC2)C1CCN(C(=O)CO)CC1 (single isomer, unassigned) [Example 168]
IC50 [1, 3]: 0.008 µM | Ki [2, 4]: 0.0007 µM

COC(c1cc(C)c2c(c1Cl)C(=O)N(Cc1c(C)cc(C)[nH]c1=O)CC2)C1CCN(C(=O)CO)CC1 (single isomer, unassigned) [Example 169]
IC50 [1, 3]: 0.07 µM | Ki [2, 4]: 0.0151 µM

COC(c1cc(Cl)c2c(c1Cl)C(=O)N(Cc1c(C)cc(C)[nH]c1=O)CC2)C1CN(C(=O)[C@@H](C)O)C1 (single isomer, unassigned) [Example 170]
IC50 [1, 3]: 0.014 µM | Ki [2, 4]: 0.0008 µM

COC(c1cc(Cl)c2c(c1Cl)C(=O)N(Cc1c(C)cc(C)[nH]c1=O)CC2)C1CN(C(=O)[C@@H](C)O)C1 (single isomer, unassigned) [Example 171]
IC50 [1, 3]: 2.63 µM | Ki [2, 4]: 0.328 µM

COC(c1cc(Cl)c2c(c1Cl)C(=O)N(Cc1c(C)cc(C)[nH]c1=O)CC2)C1CN(C(=O)[C@H](C)O)C1 (single isomer, unassigned) [Example 172]
IC50 [1, 3]: 0.012 µM | Ki [2, 4]: 0.0008 µM

COC(c1cc(Cl)c2c(c1Cl)C(=O)N(Cc1c(C)cc(C)[nH]c1=O)CC2)C1CN(C(=O)[C@H](C)O)C1 (single isomer, unassigned) [Example 173]
IC50 [1, 3]: 0.206 µM | Ki [2, 4]: 0.016 µM

COC(c1cc(Cl)c2c(c1Cl)C(=O)N(Cc1c(C)cc(C)[nH]c1=O)CC2)C1CN(C)C1 (single isomer, unassigned) [Example 174]
IC50 [1, 3]: 0.013 µM | Ki [2, 4]: 0.0006 µM

COC(c1cc(Cl)c2c(c1Cl)C(=O)N(Cc1c(C)cc(C)[nH]c1=O)CC2)C1CN(C)C1 (single isomer, unassigned) [Example 175]
IC50 [1, 3]: 1 µM | Ki [2, 4]: 0.085 µM

COC(c1cc(Cl)c2c(c1Cl)C(=O)N(Cc1c(C)cc(C)[nH]c1=O)CC2)C1CN(S(C)(=O)=O)C1 (single isomer, unassigned) [Example 176]
IC50 [1, 3]: 0.005 µM | Ki [2, 4]: 0.0003 µM

COC(c1cc(Cl)c2c(c1Cl)C(=O)N(Cc1c(C)cc(C)[nH]c1=O)CC2)C1CN(S(C)(=O)=O)C1 (single isomer, unassigned) [Example 177]
IC50 [1, 3]: 0.282 µM | Ki [2, 4]: 0.049 µM

COC(c1cc(Cl)c2c(c1Cl)C(=O)N(Cc1c(C)cc(C)[nH]c1=O)CC2)C1CC(=O)N(C)C1 (single isomer, unassigned) [Example 179]
IC50 [1, 3]: 0.009 µM | Ki [2, 4]: 0.001 µM

COC(c1cc(Cl)c2c(c1Cl)C(=O)N(Cc1c(C)cc(C)[nH]c1=O)CC2)C1CC(=O)N(C)C1 (single isomer, unassigned) [Example 180]
IC50 [1, 3]: 2.16 µM | Ki [2, 4]: 0.39 µM

COC(c1cc(C)c2c(c1Cl)C(=O)N(Cc1c(C)cc(C)[nH]c1=O)CC2)C1CN(C2COC2)C1 (single isomer, unassigned) [Example 181]
IC50 [1, 3]: 0.041 µM | Ki [2, 4]: 0.001 µM

COC(c1cc(C)c2c(c1Cl)C(=O)N(Cc1c(C)cc(C)[nH]c1=O)CC2)C1CN(C2COC2)C1 (single isomer, unassigned) [Example 182]
IC50 [1, 3]: 9.15 µM | Ki [2, 4]: 2.23 µM

Cc1cc(C)c(CN2CCc3c(Cl)cc(C(C)C4CN(C(=O)CO)C4)c(Cl)c3C2=O)c(=O)[nH]1 (single isomer, unassigned) [Example 183]
IC50 [1, 3]: 0.517 µM | Ki [2, 4]: 0.056 µM

Cc1cc(C)c(CN2CCc3c(Cl)cc(C(C)C4CN(C(=O)CO)C4)c(Cl)c3C2=O)c(=O)[nH]1 (single isomer, unassigned) [Example 184]
IC50 [1, 3]: 0.005 µM | Ki [2, 4]: 0.0006 µM

Cc1cc(C)c(CN2CCc3c(Cl)cc(C(C)C4CN(S(C)(=O)=O)C4)c(Cl)c3C2=O)c(=O)[nH]1 (single isomer, unassigned) [Example 185]
IC50 [1, 3]: 0.012 µM | Ki [2, 4]: 0.001 µM

Cc1cc(C)c(CN2CCc3c(Cl)cc(C(C)C4CN(S(C)(=O)=O)C4)c(Cl)c3C2=O)c(=O)[nH]1 (single isomer, unassigned) [Example 186]
IC50 [1, 3]: 0.24 µM | Ki [2, 4]: 0.014 µM

Cc1cc(C)c(CN2CCc3c(Cl)cc(C(C)C4CN(C)C4)c(Cl)c3C2=O)c(=O)[nH]1 (single isomer, unassigned) [Example 187]
IC50 [1, 3]: 0.01 µM | Ki [2, 4]: 0.001 µM

Cc1cc(C)c(CN2CCc3c(Cl)cc(C(C)C4CN(C)C4)c(Cl)c3C2=O)c(=O)[nH]1 (single isomer, unassigned) [Example 188]
IC50 [1, 3]: 0.151 µM | Ki [2, 4]: 0.014 µM

Cc1cc(C)c(CN2CCc3c(Cl)cc(C(C)C4CNC4)c(Cl)c3C2=O)c(=O)[nH]1 (single isomer, unassigned) [Example 189]
IC50 [1, 3]: 0.006 µM | Ki [2, 4]: 0.0007 µM

Cc1cc(C)c(CN2CCc3c(Cl)cc(C(C)C4CNC4)c(Cl)c3C2=O)c(=O)[nH]1 (single isomer, unassigned) [Example 190]
IC50 [1, 3]: 0.1 µM | Ki [2, 4]: 0.016 µM

COc1cc(C)[nH]c(=O)c1CN1CCc2c(C)cc(C(C)C3CN(S(C)(=O)=O)C3)c(Cl)c2C1=O (single isomer, unassigned) [Example 191]
IC50 [1, 3]: 0.005 µM | Ki [2, 4]: 0.0003 µM

Source: patent publication US10570121B2, “Substituted dihydroisoquinolinone compounds” (priority 2014, dated 2020)
